Data from ChEMBL document CHEMBL4665688, “Discovery of AB680: A Potent and Selective Inhibitor of CD73” (J Med Chem, 2020).

How the values were obtained:
[1] = Fraction unbound in dog plasma; format: ADME, cell-free, Canis lupus familiaris
[2] = Chemical stability of the compound in acidic condition; format: physicochemical
5'-nucleotidase [3] = molecular target: T1, 5'-nucleotidase (Homo sapiens, UniProt P21589); assay: Inhibition of CD73 in human PBMC using AMP as substrate preincubated for 60 mins followed by substrate addition and measured after 2.5 hrs by PiColorLock gold reagent based colorimetric assay; format: tissue-based
T1 sequence (P21589 whole entry): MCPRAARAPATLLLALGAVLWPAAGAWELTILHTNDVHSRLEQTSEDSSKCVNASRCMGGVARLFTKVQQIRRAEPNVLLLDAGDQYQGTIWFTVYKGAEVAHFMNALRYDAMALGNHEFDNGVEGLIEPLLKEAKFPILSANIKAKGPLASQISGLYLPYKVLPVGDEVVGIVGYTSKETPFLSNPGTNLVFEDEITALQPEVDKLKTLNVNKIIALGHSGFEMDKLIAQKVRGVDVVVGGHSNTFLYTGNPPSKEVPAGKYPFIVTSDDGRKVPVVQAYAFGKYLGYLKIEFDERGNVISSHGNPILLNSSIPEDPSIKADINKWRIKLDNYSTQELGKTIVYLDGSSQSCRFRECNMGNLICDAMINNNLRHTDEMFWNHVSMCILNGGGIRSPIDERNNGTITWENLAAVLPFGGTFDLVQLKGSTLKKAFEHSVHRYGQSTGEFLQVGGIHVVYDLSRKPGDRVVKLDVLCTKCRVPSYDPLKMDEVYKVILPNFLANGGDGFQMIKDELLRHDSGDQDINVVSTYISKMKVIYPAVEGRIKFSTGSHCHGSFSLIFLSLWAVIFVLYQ

5'-nucleotidase [4] = molecular target: T1, 5'-nucleotidase; assay: Inhibition of CD73 in human CD8-positive T cells using AMP as substrate preincubated for 60 mins followed by substrate addition and measured after 2.5 hrs by PiColorLock gold reagent based colorimetric assay; format: cell-based, CD8-positive T cell
[5] = Half life in mouse at 0.5 mg/kg, iv; format: ADME, organism-based; settings: in vivo
[6] = Half life in dog at 0.5 mg/kg, iv; format: ADME, organism-based, Canis lupus familiaris; settings: in vivo
[7] = Half life in monkey at 0.5 mg/kg, iv; format: ADME, organism-based, Macaca mulatta; settings: rhesus monkey, in vivo
[8] = Chemical stability of the compound in basic condition; format: physicochemical
5'-nucleotidase [9] = molecular target: T1, 5'-nucleotidase; assay: Inhibition of human CD73 expressed in CHO cells using AMP as substrate preincubated for 60 mins followed by substrate addition and measured after 60 mins by PiColorLock gold reagent based colorimetric assay; format: cell-based
5'-nucleotidase [10] = molecular target: T2, 5'-nucleotidase (Mus musculus, UniProt Q61503); assay: Inhibition of CD73 in mouse CD8-positive T cells using AMP as substrate preincubated for 60 mins followed by substrate addition and measured after 2.5 hrs by PiColorLock gold reagent based colorimetric assay; format: cell-based, CD8-positive T cell
T2 sequence (Q61503 whole entry): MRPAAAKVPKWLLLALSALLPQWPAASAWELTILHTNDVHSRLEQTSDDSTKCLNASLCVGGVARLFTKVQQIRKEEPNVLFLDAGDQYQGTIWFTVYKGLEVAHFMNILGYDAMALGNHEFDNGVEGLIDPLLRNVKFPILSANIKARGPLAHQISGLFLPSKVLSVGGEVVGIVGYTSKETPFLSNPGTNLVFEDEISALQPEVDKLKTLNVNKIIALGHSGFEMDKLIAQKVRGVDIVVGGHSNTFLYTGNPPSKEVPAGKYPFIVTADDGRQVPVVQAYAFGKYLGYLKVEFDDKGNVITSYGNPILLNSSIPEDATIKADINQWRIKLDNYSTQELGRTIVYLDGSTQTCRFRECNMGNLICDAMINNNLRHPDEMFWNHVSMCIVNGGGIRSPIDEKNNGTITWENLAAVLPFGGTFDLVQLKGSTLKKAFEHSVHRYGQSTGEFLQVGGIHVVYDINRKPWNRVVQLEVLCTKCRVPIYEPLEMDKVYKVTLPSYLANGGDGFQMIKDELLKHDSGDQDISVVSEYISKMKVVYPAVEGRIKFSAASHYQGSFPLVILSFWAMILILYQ

[11] = Toxicity in human at 0.1 to 25 mg, iv administered as single dose; format: organism-based; settings: in vivo, dose 0.1-25 mg
Cytochrome P450 1A2 [12] = molecular target: T3, Cytochrome P450 1A2 (Homo sapiens, UniProt P05177); assay: Inhibition of CYP1A2 in human liver microsomes using phenacetin as substrate incubated for 5 to 20 mins in presence of NADPH by LC-MS/MS analysis; format: ADME; settings: time 5-20 min; read-out: INH
T3 sequence (P05177 whole entry): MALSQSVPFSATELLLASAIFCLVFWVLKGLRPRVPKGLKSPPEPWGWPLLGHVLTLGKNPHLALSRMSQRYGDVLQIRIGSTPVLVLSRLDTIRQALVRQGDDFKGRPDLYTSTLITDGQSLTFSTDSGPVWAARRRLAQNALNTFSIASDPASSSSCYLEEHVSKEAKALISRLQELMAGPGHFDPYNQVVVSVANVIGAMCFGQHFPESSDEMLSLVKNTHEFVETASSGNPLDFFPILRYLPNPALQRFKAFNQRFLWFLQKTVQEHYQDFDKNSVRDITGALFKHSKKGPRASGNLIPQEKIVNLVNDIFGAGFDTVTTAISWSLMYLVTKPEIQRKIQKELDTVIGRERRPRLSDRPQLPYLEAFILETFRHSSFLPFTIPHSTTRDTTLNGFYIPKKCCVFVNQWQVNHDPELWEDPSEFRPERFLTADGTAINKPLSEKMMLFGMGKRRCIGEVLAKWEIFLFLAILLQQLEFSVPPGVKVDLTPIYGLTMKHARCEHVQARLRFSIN

Cytochrome P450 1A2 [13] = molecular target: T3, Cytochrome P450 1A2; assay: Induction of CYP1A2 (unknown origin) assessed as effect on CYP1A2 mRNA expression; format: ADME
Cytochrome P450 2D6 [14] = molecular target: T4, Cytochrome P450 2D6 (Homo sapiens, UniProt P10635); assay: Time dependent inhibition of CYP2D6 in human liver microsomes using dextromethorphan as substrate in presence of NADPH by LC-MS/MS analysis; format: ADME
T4 sequence (P10635 whole entry, the tested form may be a part): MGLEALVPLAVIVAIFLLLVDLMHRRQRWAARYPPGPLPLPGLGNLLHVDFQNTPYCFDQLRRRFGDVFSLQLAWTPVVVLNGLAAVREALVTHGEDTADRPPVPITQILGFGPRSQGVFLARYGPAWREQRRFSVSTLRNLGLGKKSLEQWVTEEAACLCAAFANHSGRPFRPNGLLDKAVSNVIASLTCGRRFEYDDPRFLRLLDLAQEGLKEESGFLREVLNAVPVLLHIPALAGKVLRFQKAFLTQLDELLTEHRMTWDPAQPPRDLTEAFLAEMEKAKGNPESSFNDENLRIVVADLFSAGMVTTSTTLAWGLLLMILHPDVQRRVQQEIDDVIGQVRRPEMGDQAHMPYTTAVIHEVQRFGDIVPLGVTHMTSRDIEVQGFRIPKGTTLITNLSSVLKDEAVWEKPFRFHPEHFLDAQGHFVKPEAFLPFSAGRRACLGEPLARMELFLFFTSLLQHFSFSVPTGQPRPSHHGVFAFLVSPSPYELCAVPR

[15] = Volume of distribution at steady state in human at 16 mg, iv administered as single infusion for 30 to 60 mins; format: ADME, organism-based; settings: in vivo, time 30-60 min, read-out: Vdss
[16] = Clearance in human at 16 mg, iv administered as single infusion for 30 to 60 mins; format: ADME, organism-based; settings: in vivo, time 30-60 min
Cytochrome P450 1A2 [17] = molecular target: T3, Cytochrome P450 1A2; assay: Time dependent inhibition of CYP1A2 in human liver microsomes using phenacetin as substrate in presence of NADPH by LC-MS/MS analysis; format: ADME
[18] = Genotoxicity in Salmonella typhimurium by Ames test; format: toxicity; settings: salmonella enterica subsp. enterica serovar typhimurium
Cytochrome P450 3A4 = Cytochrome P450 3A4 (Homo sapiens, UniProt P08684); assay: Inhibition of CYP3A4 in human liver microsomes using midazolam as substrate incubated for 5 to 20 mins in presence of NADPH by LC-MS/MS analysis; format: ADME; settings: time 5-20 min
Chain of Cytochrome P450 3A4 (P08684 whole entry, the tested form may be a part): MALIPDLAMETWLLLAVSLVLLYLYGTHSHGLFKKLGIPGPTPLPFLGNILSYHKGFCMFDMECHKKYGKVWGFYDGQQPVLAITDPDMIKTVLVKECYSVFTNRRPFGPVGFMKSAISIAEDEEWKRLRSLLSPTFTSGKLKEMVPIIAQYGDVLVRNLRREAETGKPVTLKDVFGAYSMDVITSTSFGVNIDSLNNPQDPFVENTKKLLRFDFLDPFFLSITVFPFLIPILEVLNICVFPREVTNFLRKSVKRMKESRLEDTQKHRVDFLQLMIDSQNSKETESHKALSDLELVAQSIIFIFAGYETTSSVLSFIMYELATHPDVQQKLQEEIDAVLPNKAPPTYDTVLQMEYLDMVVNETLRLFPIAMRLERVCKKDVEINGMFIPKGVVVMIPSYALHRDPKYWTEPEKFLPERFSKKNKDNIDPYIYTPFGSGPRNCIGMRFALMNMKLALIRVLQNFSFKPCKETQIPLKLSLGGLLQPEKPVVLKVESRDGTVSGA

[19] = Clearance in human at 25 mg, iv administered as single infusion for 30 to 60 mins; format: ADME, organism-based; settings: in vivo, time 30-60 min
Cytochrome P450 2D6 [20] = molecular target: T4, Cytochrome P450 2D6; assay: Inhibition of CYP2D6 in human liver microsomes using dextromethorphan as substrate incubated for 5 to 20 mins in presence of NADPH by LC-MS/MS analysis; format: ADME; settings: time 5-20 min
[21] = molecular target: T5, Nuclear receptor subfamily 1 group I member 2 (Homo sapiens, UniProt O75469); assay: Activation of PXR (unknown origin) by reporter gene assay; format: ADME
T5 sequence (O75469 whole entry): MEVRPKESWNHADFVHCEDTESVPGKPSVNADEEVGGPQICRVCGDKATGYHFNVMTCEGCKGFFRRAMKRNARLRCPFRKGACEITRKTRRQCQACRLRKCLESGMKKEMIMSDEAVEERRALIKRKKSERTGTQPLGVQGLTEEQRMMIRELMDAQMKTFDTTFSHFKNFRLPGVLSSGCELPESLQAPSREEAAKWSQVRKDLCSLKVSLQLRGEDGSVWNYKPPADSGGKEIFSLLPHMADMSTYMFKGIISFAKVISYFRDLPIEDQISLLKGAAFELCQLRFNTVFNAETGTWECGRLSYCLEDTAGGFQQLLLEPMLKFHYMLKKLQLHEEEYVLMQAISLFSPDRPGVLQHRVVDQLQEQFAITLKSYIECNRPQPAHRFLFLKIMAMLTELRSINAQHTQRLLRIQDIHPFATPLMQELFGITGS

5'-nucleotidase [22] = molecular target: T1, 5'-nucleotidase; assay: Inhibition of soluble human CD73

Structure (SMILES) | fraction unbound [1] | Stabilty [2] | IC50 (5'-nucleotidase [3]) | IC50 (5'-nucleotidase [4]) | half-life [5] | half-life [6] | half-life [7] | Stabilty [8] | IC50 (5'-nucleotidase [9]) | IC50 (5'-nucleotidase [10]) | also measured
C[C@H](Nc1cc(Cl)nc2c1cnn2[C@@H]1O[C@H](COP(=O)(O)CP(=O)(O)O)[C@@H](O)[C@H]1O)c1ccc(F)cc1 | 0.102 | Stable | 0.021 nM | 0.01 nM | 6.5 h | 15 h | 34 h | Stable | 0.115 nM | 0.83 nM | 
C[C@H](Nc1cc(Cl)nc2c1cnn2[C@@H]1O[C@H](COP(=O)(O)CP(=O)(O)O)[C@@H](O)[C@H]1O)c1ccccc1F | 0.083 | Stable |  |  | 3.5 h | 22 h | 27 h | Stable |  | 0.66 nM | Activity [11]: Non-Toxic; IC50 (Cytochrome P450 1A2 [12]): > 100000 nM; Activity (Cytochrome P450 1A2 [13]): Not Active; TDI (Cytochrome P450 2D6 [14]): Not Active; Vd [15]: 6.38 L; clearance [16]: 1.12 mL/min; TDI (Cytochrome P450 1A2 [17]): Not Active; Activity [18]: Non-Toxic; INH (Cytochrome P450 3A4): > 100 µM; clearance [19]: 1.14 mL/min; INH (Cytochrome P450 2D6 [20]): > 100 µM; Activity [21]: Not Active
C[C@H](Nc1nc(Cl)nc2c1cnn2[C@@H]1O[C@H](COP(=O)(O)CP(=O)(O)O)[C@@H](O)[C@H]1O)c1ccccc1 | 0.187 |  | 0.0085 nM | 0.0027 nM | 2 h | 13 h | 28 h |  | 0.045 nM | 0.16 nM | IC50 (5'-nucleotidase [22]): 0.053 nM
